Assays:
Format in all cases: biochemical
B-Raf V600E = target: T1, B-Raf V600E (Homo sapiens, UniProt P15056, V600E); test: AlphaScreen kinase assay, B-Raf V600E; details: read-out: IC50, activity toward kinase B-Raf V600E
T1 construct: P4254. pFastBacBD-CDC37 BRAF D437-K722-X, V600E; His6 with pFastBac HT leader (TEV site) (N); made in house; host or cells: Sf9 (baculovirus; chaperone CDC37 co-expressed)

Fms = target: T2, Fms (Homo sapiens, UniProt P07333); test: AlphaScreen kinase assay, Fms; details: read-out: IC50, activity toward kinase Fms
T2 construct: purchased Upstate Biotechnology
T2 sequence (P07333 20-972): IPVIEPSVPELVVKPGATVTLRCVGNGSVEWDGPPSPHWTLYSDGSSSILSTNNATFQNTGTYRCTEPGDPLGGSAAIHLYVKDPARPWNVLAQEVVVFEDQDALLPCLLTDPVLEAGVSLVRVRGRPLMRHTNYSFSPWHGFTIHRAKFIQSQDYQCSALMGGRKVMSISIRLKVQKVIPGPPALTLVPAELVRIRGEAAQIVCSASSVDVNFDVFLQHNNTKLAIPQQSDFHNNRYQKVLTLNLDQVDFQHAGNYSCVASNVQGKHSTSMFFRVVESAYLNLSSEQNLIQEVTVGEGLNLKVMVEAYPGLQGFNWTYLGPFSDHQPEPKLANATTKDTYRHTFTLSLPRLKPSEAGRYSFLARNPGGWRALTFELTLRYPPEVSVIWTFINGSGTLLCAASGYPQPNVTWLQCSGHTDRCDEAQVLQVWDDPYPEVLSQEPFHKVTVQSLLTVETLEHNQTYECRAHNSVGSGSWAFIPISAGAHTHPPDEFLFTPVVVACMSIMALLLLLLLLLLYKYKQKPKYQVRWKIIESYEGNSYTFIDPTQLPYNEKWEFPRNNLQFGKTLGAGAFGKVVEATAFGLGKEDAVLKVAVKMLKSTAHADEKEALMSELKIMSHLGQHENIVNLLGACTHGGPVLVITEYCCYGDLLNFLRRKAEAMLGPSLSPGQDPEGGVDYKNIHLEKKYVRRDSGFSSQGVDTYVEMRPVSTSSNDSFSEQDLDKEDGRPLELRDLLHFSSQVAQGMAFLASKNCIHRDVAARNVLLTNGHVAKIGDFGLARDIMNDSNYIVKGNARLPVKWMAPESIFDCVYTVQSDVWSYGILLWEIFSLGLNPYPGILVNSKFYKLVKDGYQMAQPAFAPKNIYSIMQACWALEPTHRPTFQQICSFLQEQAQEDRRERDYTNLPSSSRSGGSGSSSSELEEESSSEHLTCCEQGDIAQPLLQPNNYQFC

Flt1 = target: T3, Flt1 (Homo sapiens, UniProt P17948); test: AlphaScreen kinase assay, Flt1; details: read-out: IC50, activity toward kinase Flt1
T3 construct: P1826.pETN6 BI-PTP FLT1 M799-D1165-X WT; His6 (N); made in house; host or cells: E. coli (PTP1B co-expressed)
T3 sequence (P17948 with tags, fused parts or gaps): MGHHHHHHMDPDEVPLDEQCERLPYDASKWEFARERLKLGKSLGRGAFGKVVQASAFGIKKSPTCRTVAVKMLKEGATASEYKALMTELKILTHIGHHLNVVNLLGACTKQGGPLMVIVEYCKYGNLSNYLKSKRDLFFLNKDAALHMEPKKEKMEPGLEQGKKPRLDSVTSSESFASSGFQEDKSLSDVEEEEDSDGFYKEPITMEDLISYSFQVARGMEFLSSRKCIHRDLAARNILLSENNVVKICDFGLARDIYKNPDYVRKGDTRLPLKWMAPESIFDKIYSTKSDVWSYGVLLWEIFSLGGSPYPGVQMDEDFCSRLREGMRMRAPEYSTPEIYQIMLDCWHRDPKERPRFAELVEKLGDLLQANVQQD

Kit = target: T4, Kit (Homo sapiens, UniProt P10721); test: AlphaScreen kinase assay, Kit; details: read-out: IC50, activity toward kinase Kit
T4 construct: P1332.N6 BI PTP KIT M552-K948-X COD; His6 (N); made in house; host or cells: E. coli (PTP1B co-expressed)
T4 sequence (P10721 with tags, fused parts or gaps): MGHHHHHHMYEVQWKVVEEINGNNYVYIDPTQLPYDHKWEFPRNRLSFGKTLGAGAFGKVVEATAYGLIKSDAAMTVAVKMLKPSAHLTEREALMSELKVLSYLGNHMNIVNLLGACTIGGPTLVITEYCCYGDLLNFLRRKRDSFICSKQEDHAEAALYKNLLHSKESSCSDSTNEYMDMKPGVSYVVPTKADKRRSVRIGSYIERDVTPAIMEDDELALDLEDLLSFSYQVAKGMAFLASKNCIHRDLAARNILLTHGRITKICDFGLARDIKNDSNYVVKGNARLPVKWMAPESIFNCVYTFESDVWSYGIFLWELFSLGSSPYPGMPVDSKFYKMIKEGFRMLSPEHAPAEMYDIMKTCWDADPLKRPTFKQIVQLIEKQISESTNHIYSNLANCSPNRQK

FGFR1 = target: T5, FGFR1 (Homo sapiens, UniProt P11362, C488A/C584S); test: AlphaScreen kinase assay, FGFR1; details: read-out: IC50, activity toward kinase FGFR
T5 construct: P1351.pET N6 BI-PTP FGFR A458-E765-X C488A, C584S; made in house; host or cells: E. coli (PTP1B co-expressed)
T5 sequence (P11362 458-765 C488A/C584S): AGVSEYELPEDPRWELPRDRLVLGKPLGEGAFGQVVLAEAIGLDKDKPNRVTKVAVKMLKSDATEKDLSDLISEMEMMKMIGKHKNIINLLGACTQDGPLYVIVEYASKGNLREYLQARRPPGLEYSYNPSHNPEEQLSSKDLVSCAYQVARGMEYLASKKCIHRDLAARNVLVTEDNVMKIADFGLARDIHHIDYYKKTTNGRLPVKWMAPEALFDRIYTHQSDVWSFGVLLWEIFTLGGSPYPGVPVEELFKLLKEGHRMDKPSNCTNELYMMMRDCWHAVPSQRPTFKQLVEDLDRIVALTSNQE

Measured: IC50

T1 sequence (P15056 with tags, fused parts or gaps V600E): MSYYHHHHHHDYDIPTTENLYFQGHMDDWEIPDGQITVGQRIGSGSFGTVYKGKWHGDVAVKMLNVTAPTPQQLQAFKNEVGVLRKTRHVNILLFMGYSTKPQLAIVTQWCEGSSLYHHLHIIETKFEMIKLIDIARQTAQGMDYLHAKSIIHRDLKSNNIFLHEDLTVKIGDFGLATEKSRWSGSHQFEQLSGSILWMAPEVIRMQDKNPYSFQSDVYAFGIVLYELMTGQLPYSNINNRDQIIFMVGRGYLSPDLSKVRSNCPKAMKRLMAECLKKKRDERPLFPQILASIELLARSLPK

CS(=O)(=O)Nc1cccc(-c2cnc3[nH]cc(C(=O)c4cccc(C(F)(F)F)c4)c3c2)c1 [Compound P-1425, N-{3-[3-(3-Trifluoromethyl-benzoyl)-1H-pyrrolo[2,3-b]pyridin-5-yl]-phenyl}-methanesulfonamide]
not listed: FGFR1
≤ 10 µM: all other assays above

CS(=O)(=O)c1cccc(-c2cnc3[nH]cc(Cc4c(F)ccc(N)c4F)c3c2)c1 [Compound P-1614]
≤ 10 µM: FGFR1 | B-Raf V600E | Flt1

Clc1ccc(Nc2c[nH]c3ncccc23)cc1 [Compound P-1491, (4-Chloro-phenyl)-(1H-pyrrolo[2,3-b]pyridin-3-yl)-amine]
≤ 10 µM: Fms | Flt1

O=C(c1c(F)ccc(NC(=O)N2CCOCC2)c1F)c1c[nH]c2ncc(Cl)cc12 [Compound P-1606, Morpholine-4-carboxylic acid [3-(5-chloro-1H-pyrrolo[2,3-b]pyridine-3-carbonyl)-2,4-difluoro-phenyl]-amide]
≤ 10 µM: B-Raf V600E | Fms | Flt1

COc1cc(OC)cc(C(=O)c2c[nH]c3ncc(Br)cc23)c1 [Compound P-1463, (5-Bromo-1H-pyrrolo[2,3-b]pyridin-3-yl)-(3,5-dimethoxy-phenyl)-methanone]
not listed: B-Raf V600E
≤ 10 µM: all other assays above

NC(=O)c1cccc(-c2cnc3[nH]ccc3c2)c1 [Compound P-1622, 3-(1H-Pyrrolo[2,3-b]pyridin-5-yl)-benzamide]
≤ 10 µM: FGFR1 | Flt1

Oc1ccc(Nc2c[nH]c3ncccc23)c(F)c1 [Compound P-1499, 3-Fluoro-4-(1H-pyrrolo[2,3-b]pyridin-3-ylamino)-phenol]
≤ 10 µM: Fms | Flt1 | Kit

CCCCN(C)C(=O)Nc1ccc(F)c(Cc2c[nH]c3ncc(Cl)cc23)c1F [Compound P-1625, 1-Butyl-3-[3-(5-chloro-1H-pyrrolo[2,3-b]pyridin-3-ylmethyl)-2,4-difluoro-phenyl]-1-methyl-urea]
≤ 10 µM: FGFR1 | Fms | Flt1

CC(=O)Nc1cccc(-c2cnc3[nH]cc(C(=O)c4cccc(OC(F)F)c4)c3c2)c1 [Compound P-1424, N-{3-[3-(3-Difluoromethoxy-benzoyl)-1H-pyrrolo[2,3-b]pyridin-5-yl]-phenyl}-acetamide]
≤ 10 µM: FGFR1 | Flt1 | Kit

O=C(c1c[nH]c2ccccc12)c1c[nH]c2ncc(Br)cc12 [Compound P-1624]
≤ 10 µM: FGFR1 | Flt1

CC(C)(C)OC(=O)N(Cc1ccc(Cl)cc1)c1ccc(C(=O)c2c[nH]c3ncccc23)cn1 [Compound P-1194]
≤ 10 µM: all assays above

O=C(c1ccc(Cl)cc1Cl)c1c[nH]c2ncc(-c3ccccc3)cc12 [Compound P-1557]
≤ 10 µM: Flt1 | Kit

CCCCNC(=O)Nc1ccc(F)c(Cc2c[nH]c3ncc(Cl)cc23)c1F [Compound P-1587, 1-Butyl-3-[3-(5-chloro-1H-pyrrolo[2,3-b]pyridin-3-ylmethyl)-2,4-difluoro-phenyl]-urea]
≤ 10 µM: Fms | Flt1

CS(=O)(=O)Nc1cccc(-c2cnc3[nH]cc(C(=O)c4cccc(OC(F)(F)F)c4)c3c2)c1 [Compound P-1428, N-{3-[3-(3-Trifluoromethoxy-benzoyl)-1H-pyrrolo[2,3-b]pyridin-5-yl]-phenyl}-methanesulfonamide]
not listed: B-Raf V600E
≤ 10 µM: all other assays above

CS(=O)(=O)c1cccc(-c2cnc3[nH]cc(Cc4c(F)ccc(NC(=O)NC5CCCC5)c4F)c3c2)c1 [Compound P-1615, 1-Cyclopentyl-3-{2,4-difluoro-3-[5-(3-methanesulfonyl-phenyl)-1H-pyrrolo[2,3-b]pyridin-3-ylmethyl]-phenyl}-urea]
≤ 10 µM: Fms | Flt1

COc1cc(Cc2c[nH]c3ncc(Br)cc23)cc(OC)c1 [Compound P-1464, 5-Bromo-3-(3,5-dimethoxy-benzyl)-1H-pyrrolo[2,3-b]pyridine]
not listed: B-Raf V600E
≤ 10 µM: all other assays above

c1ccc(CNc2ccc(Cc3c[nH]c4ncccc34)cn2)cc1 [Compound P-0733]
≤ 10 µM: Fms | Flt1

CS(=O)(=O)Nc1cccc(-c2cnc3[nH]cc(C(=O)c4cc(F)cc(C(F)(F)F)c4)c3c2)c1 [Compound P-1427, N-{3-[3-(3-Fluoro-5-trifluoromethyl-benzoyl)-1H-pyrrolo[2,3-b]pyridin-5-yl]-phenyl}-methanesulfonamide]
≤ 10 µM: Fms | Flt1 | Kit

CC(=O)Nc1cccc(-c2cnc3[nH]cc(C(=O)c4cccc(OC(F)(F)F)c4)c3c2)c1 [Compound P-1422, N-{3-[3-(3-Trifluoromethoxy-benzoyl)-1H -pyrrolo[2,3-b]pyridin-5-yl]-phenyl}-acetamide]
≤ 10 µM: Flt1 | Kit

CCCCNC(=O)Nc1ccc(F)c(Cc2c[nH]c3ncc(OC)cc23)c1F [Compound P-1571, 1-Butyl-3-[2,4-difluoro-3-(5-methoxy-1H-pyrrolo[2,3-b]pyridin-3-ylmethyl)-phenyl]-urea]
≤ 10 µM: Fms | Flt1

COc1cnc2[nH]cc(Cc3c(F)ccc(NC(=O)NC4CCCC4)c3F)c2c1 [Compound P-1572, 1-Cyclopentyl-3-[2,4-difluoro-3-(5-methoxy-1H-pyrrolo[2,3-b]pyridin-3-ylmethyl)-phenyl]-urea]
≤ 10 µM: B-Raf V600E | Fms | Flt1

CC(=O)Nc1cccc(-c2cnc3[nH]cc(C(=O)c4cc(Cl)cc(Cl)c4)c3c2)c1 [Compound P-1423, N-{3-[3-(3,5-Dichloro-benzoyl)-1H-pyrrolo[2,3-b]pyridin-5-yl]-phenyl}-acetamide]
≤ 10 µM: all assays above

c1ccc(Cc2cccc(Nc3c[nH]c4ncccc34)c2)cc1 [Compound P-1497, (3-Benzyl-phenyl)-(1H-pyrrolo[2,3-b]pyridin-3-yl)-amine]
≤ 10 µM: Fms | Flt1 | Kit

O=C(c1ccc(NCc2ccc(F)cc2)nc1)c1c[nH]c2ncccc12 [Compound P-0491]
≤ 10 µM: Fms | Flt1

COc1cc(OC)cc(C(OC)c2c[nH]c3ncc(Br)cc23)c1 (stereo not drawn) [Compound P-1461]
not listed: B-Raf V600E
≤ 10 µM: all other assays above

O=C(NCCN1CCOCC1)Nc1ccc(F)c(Cc2c[nH]c3ncc(Cl)cc23)c1F [Compound P-1594, 1-[3-(5-Chloro-1H-pyrrolo[2,3-b]pyridin-3-ylmethyl)-2,4-difluoro-phenyl]-3-(2-morpholin-4-yl-ethyl)-urea]
≤ 10 µM: B-Raf V600E | Fms | Flt1

CN(C)c1ccc(Cc2c[nH]c3ncccc23)cc1 [Compound P-0150]
≤ 10 µM: FGFR1 | Flt1

O=C(c1ccc(Nc2ccccc2)nc1)c1c[nH]c2ncccc12 [Compound P-1160]
≤ 10 µM: B-Raf V600E | Flt1 | Kit

O=C(Nc1ccc(F)c(Cc2c[nH]c3ncc(Cl)cc23)c1F)N1CCOCC1 [Compound P-1595, Morpholine-4-carboxylic acid [3-(5-chloro-1H-pyrrolo[2,3-b]pyridin-3-ylmethyl)-2,4-difluoro-phenyl]-amide]
≤ 10 µM: FGFR1 | Fms | Flt1

OC(c1c(Cl)ccc(OCC(F)(F)F)c1F)c1c[nH]c2ncc(Br)cc12 (stereo not drawn) [Compound P-1393, (5-Bromo-1H-pyrrolo[2,3-b]pyridin-3-yl)-[6-chloro-2-fluoro-3-(2,2,2-trifluoro-ethoxy)-phenyl]-methanol]
not listed: B-Raf V600E
≤ 10 µM: all other assays above

COc1cc(OC)cc(C(O)c2c[nH]c3ncc(Br)cc23)c1 (stereo not drawn) [Compound P-1460]
not listed: B-Raf V600E
≤ 10 µM: all other assays above

Cc1nc(NCc2ccc(C(F)(F)F)cc2)ccc1Cc1c[nH]c2ncccc12 [Compound P-1112]
≤ 10 µM: B-Raf V600E | Fms | Flt1

COC(=O)/C=C/c1cccc(-c2cnc3[nH]cc(C(=O)c4cccc(NS(C)(=O)=O)c4)c3c2)c1 [Compound P-1404]
not listed: B-Raf V600E
≤ 10 µM: all other assays above

O=C(c1ccc(NCc2ccc(C(F)(F)F)cc2)nc1)c1c[nH]c2ncccc12 [Compound P-0461]
≤ 10 µM: Fms | Flt1

From patent US8415469B2, “Compounds and methods for kinase modulation, and indications therefor” (Plexxikon Inc., priority 2005, dated 2013)
